Experimental findings from article PMC8955197, “Polyketide Derivatives from the Endophytic Fungus Phaeosphaeria sp. LF5 Isolated from Huperzia serrata and Their Acetylcholinesterase Inhibitory Activities” (Journal of Fungi, 2022) are described below.

As a reminder, the IC50 is the concentration that inhibits the measured activity by half.

The target of the assay is AChE (Homo sapiens, UniProt P22303). The experiment in a line: biochemical. The conditions noted are these: mean ± SD of three parallel measurements; phosphate buffer pH 7.7, 25 °C; read-out: IC50 (µM), acetylcholinesterase inhibitory activity. Here is the method: The assay was carried out in a 96-well microtiter plate reader. […] The mixture was incubated for 5 min at 25 °C. […] Percent inhibition was calculated through the following formula: (control absorbance–sample absorbance)/control absorbance × 100. The IC50 values were the means ± SD of three determinations.
Chain of AChE (P22303 32-614): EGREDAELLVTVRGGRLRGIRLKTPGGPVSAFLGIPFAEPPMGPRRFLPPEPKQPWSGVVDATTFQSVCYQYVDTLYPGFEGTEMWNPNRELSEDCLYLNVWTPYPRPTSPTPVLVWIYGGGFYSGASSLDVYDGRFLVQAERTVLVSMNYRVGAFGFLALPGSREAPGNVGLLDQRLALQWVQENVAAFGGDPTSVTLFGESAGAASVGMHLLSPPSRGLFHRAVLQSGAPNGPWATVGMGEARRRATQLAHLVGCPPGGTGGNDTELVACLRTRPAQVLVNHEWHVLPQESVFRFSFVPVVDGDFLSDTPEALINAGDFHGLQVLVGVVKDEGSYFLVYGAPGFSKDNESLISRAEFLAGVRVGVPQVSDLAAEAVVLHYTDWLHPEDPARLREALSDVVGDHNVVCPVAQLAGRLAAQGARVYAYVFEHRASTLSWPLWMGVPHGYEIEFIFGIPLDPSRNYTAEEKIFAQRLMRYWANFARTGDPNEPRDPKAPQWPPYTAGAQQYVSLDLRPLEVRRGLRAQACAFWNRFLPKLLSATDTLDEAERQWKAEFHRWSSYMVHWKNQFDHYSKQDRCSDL
On to `CC1C=C(CO)C(=O)O1` (centres unmarked) [Compound 1, 3-(hydroxymethyl)-5-methylfuran-2(5H)-one], for which the IC50 is > 100 µM. For `CC1C=C(CC(=O)O)C(=O)O1` (centres unmarked) [Compound 2, 2-(5-methyl-2-oxo-2,5-dihydrofuran-3-yl)-acetic acid], the IC50 is > 100 µM. On to `COC(=O)CC1=CC(C)OC1=O` (centres unmarked) [Compound 3, methyl-2-(5-methyl-2-oxo-2,5-dihydrofuran-3-yl)-acetate], for which the IC50 is > 100 µM.

With `C[C@@H]1C=C(C[C@@H](O)[C@H](C)O)C(=O)O1` [Compound 4], the IC50 came to 6.26 ± 0.15 µM. Turning to `C/C(=C\C(=O)O)CCO` [Compound 5, E-Δ^2-anhydromevalonic acid], the IC50 was > 100 µM.

In the case of `CC1=CC(=O)OCC1` [Compound 6, 4-methyl-5,6-dihydropyren-2-one], the concentration for half-maximal inhibition (IC50) was > 100 µM. `Cc1cc(C(=O)O)cc(C(C)O)n1` (centres unmarked) [Compound 7, 2-(1-hydroxyethyl)-6-methylisonicotinic acid]: the IC50 is > 100 µM. Take `C[C@@H]1Cc2cc(O)cc(O)c2C(=O)O1` [Compound 8, (R)-6-hydroxymellein]: the IC50 was > 100 µM.

With `CC(O)C(O)c1cc2cc(O)cc(O)c2c(=O)o1` (stereo not drawn) [Compound 9, 6,8-dihydroxy-3-(1′R, 2′R-dihydroxypropyl)-isocoumarin], the IC50 is > 100 µM. `COc1cc(O)cc2cc(C)oc(=O)c12` [Compound 10, 6-hydroxy-8-methoxy-3-methylisocoumarin]: the IC50 is > 100 µM. Take `C[C@@H](O)Cc1cc2cc(O)cc(O)c2c(=O)o1` [Compound 11, de-O-methyldiaporthin]: the IC50 is 21.2 ± 1.53 µM.
